Measured values reported in US10766866B2, “Deterrents for arthropods and marine organisms” (priority 2017, dated 2020).

Tests used:
[1] = tested on: α-like OctRs; assay: OctR activation, change in intracellular calcium (statements on OctRs in general); type: cell-based; settings: relative to fluorinated AZ1411
Excerpt: (§1) Functional expression of cloned arthropod OctRs and human α2-ARs: The cDNAs for α-like OctRs from different arthropod species (e.g., Anopheles gambiae, Aedes aegypti, Periplaneta americana, Drosophila melanogaster, Ixodes scapularis, Balanus improvises) and for α2-AR subtypes from humans were individually subcloned into mammalian expression vectors. These plasmids, which harbor a resistance gene for the selection drug G418 and the cDNA sequence for the receptor of interest, were individually transfected into mammalian cells using a calcium phosphate precipitation method. G418 selection was then employed to generated stable clonal cell lines. Utilizing rapid filtration radioligand binding techniques, the cell surface density of receptor expression of the individual clonal cell lines was determined at equilibrium and those with similar high levels of expression were selected for further experiments. […] The radioligand was [3H]rauwolscine and non-specific binding was determined in the presence of 10 μM atipamezole. […] The radioactivity remaining on the filters was quantified by scintillation counting. Receptor density (Bmax) was back calculated knowing the specific activity of the radioligand and applying the equation for a square hyperbola model: Bmax=(Y·(KD+X))/X, where Y is [specifically bound radioligand] and X=[radio ligand concentration]. […]

[2] = target: T1, AgAOctR (Anopheles octopamine receptor isoform A), cloned α-like OctR (Anopheles gambiae, UniProt Q7PRZ8); assay: OctR activation: change in intracellular calcium (CALCIUM 6QR dye, FlexStation 3) in stably transfected mammalian cells; type: cell-based; settings: agonist
T1 construct: Gq calcium readout
T1 sequence (Q7PRZ8 1-592): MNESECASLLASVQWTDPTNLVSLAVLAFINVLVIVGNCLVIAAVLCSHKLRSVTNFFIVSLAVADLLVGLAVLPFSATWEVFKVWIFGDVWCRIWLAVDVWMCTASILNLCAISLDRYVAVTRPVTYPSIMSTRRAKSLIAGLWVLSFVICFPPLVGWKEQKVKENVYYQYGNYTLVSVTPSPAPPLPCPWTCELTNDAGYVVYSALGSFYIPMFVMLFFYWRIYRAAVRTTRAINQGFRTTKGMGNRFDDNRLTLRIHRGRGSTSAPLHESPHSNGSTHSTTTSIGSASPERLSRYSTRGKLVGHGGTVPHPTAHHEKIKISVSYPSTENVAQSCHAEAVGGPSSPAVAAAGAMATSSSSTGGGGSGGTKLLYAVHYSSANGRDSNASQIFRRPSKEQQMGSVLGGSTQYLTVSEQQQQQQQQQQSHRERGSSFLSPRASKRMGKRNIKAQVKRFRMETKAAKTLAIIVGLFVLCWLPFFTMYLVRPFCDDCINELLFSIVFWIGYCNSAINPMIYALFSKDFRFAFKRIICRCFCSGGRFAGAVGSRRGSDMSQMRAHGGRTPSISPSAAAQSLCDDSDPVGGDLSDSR
Excerpt: (§2) Functional expression of cloned arthropod OctRs and human α2-ARs: The cDNAs for α-like OctRs from different arthropod species (e.g., Anopheles gambiae, Aedes aegypti, Periplaneta americana, Drosophila melanogaster, Ixodes scapularis, Balanus improvises) and for α2-AR subtypes from humans were individually subcloned into mammalian expression vectors. These plasmids, which harbor a resistance gene for the selection drug G418 and the cDNA sequence for the receptor of interest, were individually transfected into mammalian cells using a calcium phosphate precipitation method. G418 selection was then employed to generated stable clonal cell lines. Utilizing rapid filtration radioligand binding techniques, the cell surface density of receptor expression of the individual clonal cell lines was determined at equilibrium and those with similar high levels of expression were selected for further experiments. Briefly, binding conditions were 50 mM Tris binding buffer pH 7.4 at 25° C. and an ice-cold wash buffer 10 mM Tris-HCl, pH 7.4). The radioligand was [3H]rauwolscine and non-specific binding was determined in the presence of 10 μM atipamezole. Following the addition of membranes prepared from the clonal cell lines, samples were mixed and allowed 2 hr. to reach equilibrium before rapid filtration and washing through 0.3% PEI-treated GF/C filters. The radioactivity remaining on the filters was quantified by scintillation counting. Receptor density (Bmax) was back calculated knowing the specific activity of the radioligand and applying the equation for a square hyperbola model: Bmax=(Y·(KD+X))/X, where Y is [specifically bound radioligand] and X=[radio ligand concentration]. The affinity (KD) for the radioligand for each receptor was determined in separate saturation isotherm binding experiments using the same binding conditions as describe above.
(§3) Measurement of OctR activation by measuring changes in intracellular calcium: Activation of arthropod α-like OctRs increases intracellular calcium via a Gq-coupling mechanism. This involves activation of phospholipase C leading to an increase in intracellular inositol triphosphate (IP3) which then activates IP3-gated calcium channels in the endoplasmic reticulum causing a transient rise in intracellular calcium. These changes in intracellular calcium upon OctR activation were measured by loading cells with intracellular calcium sensitive dye CALCIUM 6QR and reading the change in calcium-induced fluorescent signal over time on a FlexStation 3 microplate reader.

[3] = tested on: IsTOctR (Ixodes octopamine receptor), cloned α-like OctR; assay: as above; type: cell-based, Ixodes scapularis; settings: agonist, read-out: IsTOctR (Ixodes octopamine receptor) EC50
Excerpt: as §2, §3

[4] = tested on: α2-ARs; assay: Functional profile at α2-ARs (preliminary studies); type: cell-based, Homo sapien
Excerpt: as §1

[5] = tested on: Ixodes scapularis tick OctR (IsTOctR); assay: OctR activation, change in intracellular calcium; type: cell-based
Excerpt: as §2, §3

[6] = tested on: Anopheles gambiae mosquito isoform A OctR (AgAOctR); assay: OctR activation, change in intracellular calcium; type: cell-based; settings: for selectivity Ki(Hsα2-AR)/EC50(OctR): AgAOctR over Homo sapien α2-AR subtypes
Excerpt: as §2, §3

[7] = tested on: Periplaneta americana OctR (PaOctR); assay: OctR activation, change in intracellular calcium; type: cell-based; settings: 100 μM; normalized to octopamine at a supersaturating concentration; FIG. 1D
Excerpt: as §2, §3

[8] = tested on: Aedes aegypti α-like OctR (AeOctR); assay: OctR activation, change in intracellular calcium; type: cell-based; settings: 100 μM; normalized to octopamine at a supersaturating concentration; FIG. 1B
Excerpt: as §2, §3

[9] = target: T2, Drosophila melanogaster α-like OctR (DmOctR) (Drosophila melanogaster, UniProt Q7JQF1); assay: OctR activation, change in intracellular calcium; type: cell-based; settings: 100 μM; normalized to octopamine at a supersaturating concentration; FIG. 1A
T2 construct: expressed in transfected cells
T2 sequence (Q7JQF1 1-645): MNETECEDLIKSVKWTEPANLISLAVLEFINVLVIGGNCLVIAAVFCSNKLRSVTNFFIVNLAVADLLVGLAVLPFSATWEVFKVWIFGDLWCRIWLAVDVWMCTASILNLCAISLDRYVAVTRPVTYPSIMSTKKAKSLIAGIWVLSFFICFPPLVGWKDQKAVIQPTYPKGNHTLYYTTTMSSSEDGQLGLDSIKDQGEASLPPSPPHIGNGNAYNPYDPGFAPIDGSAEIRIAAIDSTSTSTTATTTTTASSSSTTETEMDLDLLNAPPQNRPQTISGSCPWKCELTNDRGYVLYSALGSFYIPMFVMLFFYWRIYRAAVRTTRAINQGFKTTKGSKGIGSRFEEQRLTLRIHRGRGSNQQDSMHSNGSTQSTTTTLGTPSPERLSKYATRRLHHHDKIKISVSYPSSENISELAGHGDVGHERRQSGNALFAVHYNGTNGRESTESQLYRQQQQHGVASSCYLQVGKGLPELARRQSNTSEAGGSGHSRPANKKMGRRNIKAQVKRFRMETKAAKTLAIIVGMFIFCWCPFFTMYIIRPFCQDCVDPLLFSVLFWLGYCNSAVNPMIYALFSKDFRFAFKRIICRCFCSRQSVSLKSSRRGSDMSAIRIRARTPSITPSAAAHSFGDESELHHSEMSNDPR
Excerpt: as §2, §3

[10] = tested on: Balanus OctR (BiOctR); assay: OctR activation, change in intracellular calcium; type: cell-based, Balanus improvises; settings: 100 μM; compared with octopamine
Excerpt: as §1

[11] = target: T3, human α2C adrenergic receptor (α2c-AR) (Homo sapiens, UniProt P18825); assay: Intracellular cyclic AMP (cAMP-Glo) functional assay, stably transfected mammalian cells; type: cell-based
T3 construct: expressed in transfected cells
T3 sequence (P18825 1-462): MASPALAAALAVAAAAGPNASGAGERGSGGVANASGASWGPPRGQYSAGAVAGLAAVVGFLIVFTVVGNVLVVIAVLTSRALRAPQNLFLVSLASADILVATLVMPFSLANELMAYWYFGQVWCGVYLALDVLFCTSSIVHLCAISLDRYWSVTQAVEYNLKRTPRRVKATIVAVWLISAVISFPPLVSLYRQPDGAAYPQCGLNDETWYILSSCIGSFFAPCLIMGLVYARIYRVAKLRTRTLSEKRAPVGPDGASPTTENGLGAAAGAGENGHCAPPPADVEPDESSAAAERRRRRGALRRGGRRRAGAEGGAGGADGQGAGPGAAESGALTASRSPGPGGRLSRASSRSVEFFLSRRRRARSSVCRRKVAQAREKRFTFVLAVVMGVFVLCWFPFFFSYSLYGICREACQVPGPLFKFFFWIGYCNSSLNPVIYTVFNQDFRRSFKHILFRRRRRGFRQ
Excerpt: as §1

[12] = tested on: AeOctR (Aedes octopamine receptor), cloned α-like OctR; assay: OctR activation: change in intracellular calcium (CALCIUM 6QR dye, FlexStation 3) in stably transfected mammalian cells; type: cell-based, Aedes aegypti; settings: agonist
Excerpt: as §2, §3

[13] = target: T4, Hsα2C-AR (human α2C adrenergic receptor) (Homo sapiens, UniProt P18825); assay: [3H]rauwolscine competition radioligand binding, membranes of clonal mammalian cell lines; settings: 50 mM Tris pH 7.4, 25° C., 2 hr, Cheng-Prusoff
T4 construct: expressed in transfected cells
T4 sequence (P18825 1-462): T3 sequence (P18825 1-462)
Excerpt: as §2
(§4) Measurement of compound affinities by competition radioligand binding: Affinities (Ki) for compounds were determined by [3H]rauwolscine competition binding using the same binding conditions as described above. The Ki values were calculated from IC50 values using the Cheng-Prusoff equation.

[14] = target: T5, Hsα2A-AR (human α2A adrenergic receptor) (Homo sapiens, UniProt P08913); assay: as above; settings: 50 mM Tris pH 7.4, 25° C., 2 hr, Cheng-Prusoff
T5 construct: expressed in transfected cells; membranes
T5 sequence (P08913 whole entry): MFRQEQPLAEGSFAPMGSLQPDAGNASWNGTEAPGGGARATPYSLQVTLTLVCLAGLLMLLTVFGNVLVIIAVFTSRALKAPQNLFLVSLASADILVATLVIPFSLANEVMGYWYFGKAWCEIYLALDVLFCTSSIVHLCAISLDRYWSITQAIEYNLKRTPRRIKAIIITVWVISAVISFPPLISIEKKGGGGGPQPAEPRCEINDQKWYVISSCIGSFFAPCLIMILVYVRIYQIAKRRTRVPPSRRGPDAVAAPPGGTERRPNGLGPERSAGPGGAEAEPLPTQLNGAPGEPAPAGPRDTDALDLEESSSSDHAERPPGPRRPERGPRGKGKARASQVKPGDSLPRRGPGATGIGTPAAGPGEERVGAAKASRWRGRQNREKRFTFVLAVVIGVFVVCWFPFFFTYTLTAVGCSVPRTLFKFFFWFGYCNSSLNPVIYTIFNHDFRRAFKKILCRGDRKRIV
Excerpt: as §2, §4

[15] = target: T3, human α2C adrenergic receptor (α2c-AR); assay: Measurement of intracellular cAMP (cAMP-Glo); type: cell-based, Homo sapien; settings: in words; normalized to 1 μM forskolin; FIG. 8
Excerpt: as §1

C=C(c1cnc[nH]1)c1cccc(Cl)c1C [AZ1436]
potency for OctRs compared with AZ1411 [1]: 2-4
EC50 [2]: 0.025 ± 0.0019 nM
EC50 [3]: 1.8 ± 0.83 nM
functional mode at α2-ARs [4]: likely an antagonist
potency (EC50) ([5]; in words, FIG. 9): potent
efficacy (full/partial agonist) ([5]; in words, FIGS. 9, 11): full agonist
selectivity Ki(Hsα2-AR)/EC50(OctR) [6]: highly selective
efficacy (full/partial agonist) ([6]; in words, FIGS. 9-12): full agonist
potency (EC50) ([6]; in words, FIGS. 9-12): potent

CCC(C)OC(=O)N1CCCCC1CCO (stereo not drawn) [picaridin, 1-(1-methylpropoxycarbonyl)-2-(2-hydroxyethyl)piperidine]
agonist response (change in intracellular calcium) relative to octopamine ([5]; 100 μM, normalized to octopamine at a supersaturating concentration, FIG. 1C): did not produce a significant agonist response
agonist response (change in intracellular calcium) relative to octopamine [7]: did not produce a significant agonist response
agonist response (change in intracellular calcium) relative to octopamine [8]: did not produce a significant agonist response
agonist response (change in intracellular calcium) relative to octopamine [9]: did not produce a significant agonist response
agonist response (change in intracellular calcium) relative to octopamine [10]: significant agonist responses

C=C(c1cnc[nH]1)c1cccc(F)c1C [AZ1411]
EC50 [2]: 0.11 ± 0.058 nM
EC50 [11]: 931 nM
EC50 [12]: 81 ± 46 nM
Ki [13]: 3530 ± 1590 nM
Ki [14]: 494 ± 177 nM
EC50 [3]: 2.9 ± 1.3 nM
efficacy (change in intracellular cyclic AMP) [15]: partial agonist
potency (change in intracellular cyclic AMP) [15]: low potency
selectivity Ki(Hsα2-AR)/EC50(OctR) ([5]; Ixodes tick OctR over Homo sapien α2-AR subtypes): highly selective
selectivity Ki(Hsα2-AR)/EC50(OctR) [6]: highly selective
